Laboratory results from patent US3956234A, “Inhibiting ozone deterioration of rubbers” (Sumitomo Chemical Company, Limited, priority 1973, dated 1976).

Columns and labels:
[1] = Static ozone deterioration test, Example 3 chloroprene rubber compound; conditions: Table 6, static, 20 % elongation, 1.5 parts added, ozone 90 ± 5 pphm, 50 ± 10°C
Protocol: (§1) The static and dynamic ozone deterioration tests were made on the test pieces on the Ozone Weather-O-Meter produced by Toyo Rika Co. Ltd. In the static test, the Dumbbel No. 2 test pieces were kept at a 20 % elongation in the stream of ozone during the test, and during the latter test, the test pieces were given repeated elongation of from 0 up to 20 % once a second in the stream of ozone.
(§2) be 50 ± 10°C., and the time required for the generation of visually observable cracks on the surface of the vulcanized rubber was taken as a crack-generating time which was used as the measure of ozone-resistance. […]
(§3) A blank test was also carried out at the same time for comparison, using the rubber compound alone above mentioned.

[2] = Dynamic ozone deterioration test, Example 1 natural rubber compound (pale crape No. 1); conditions: Table 3, dynamic, repeated elongation 0 up to 20 % once a second, 2 parts added, ozone 35 ± 5 pphm, 50 ± 10°C
Protocol: (§4) Two parts of each of the present compounds in Table 1 (sample numbers A to H) and, as a counterpart, Antiozonant AFD (a registered trademark of Bayer Co. Ltd.) represented by sample number I were individually mixed thoroughly with the following rubber compound,
(§5) and each resulting mixture was well milled on a 2-roll mill of 10 inches in diameter and then vulcanized thereon at 140°C. for 20 minutes. A blank test was also carried out at the same time for comparison, using the rubber compound alone above mentioned.
as §1
(§6) The tests were carried out under the condition that the ozone concentration be 35 ± 5 pphm and the test temperature be 50 ± 10°C., and the time required for the generation of visually observable cracks on the surface of the vulcanized rubber was taken as a crack-generating time which was used as the measure of ozone-resistance.

[3] = Dynamic ozone deterioration test, Example 2 SBR compound; conditions: Table 5, dynamic, repeated elongation 0 up to 20 %, 2 parts added, ozone 35 ± 5 pphm, 50 ± 10°C
Protocol: as §1, §6
(§7) Two parts of each of the present compounds in Table 1 (sample numbers A to H) and, as a counterpart, Antiozonant AFD represented by sample number I were individually mixed thoroughly with the following rubber compound,
(§8) and each resulting mixture was well milled on a 2-roll mill of 10 inches in diameter and then vulcanized thereon at 150°C. for 30 minutes. A blank test was also carried out at the same time for comparison, using the rubber compound alone above mentioned.

[4] = Static ozone deterioration test, Example 2 SBR compound; conditions: Table 4, static, 20 % elongation, 2 parts added, ozone 35 ± 5 pphm, 50 ± 10°C
Protocol: as §1, §6, §7, §8

[5] = Dynamic ozone deterioration test, Example 3 chloroprene rubber compound; conditions: Table 7, dynamic, repeated elongation 0 up to 20 %, 1.5 parts added, ozone 90 ± 5 pphm, 50 ± 10°C
Protocol: as §1, §2, §3

[6] = Static ozone deterioration test, Example 1 natural rubber compound (pale crape No. 1); conditions: Table 2, static, 20 % elongation, 2 parts added, ozone 35 ± 5 pphm, 50 ± 10°C
Protocol: as §4, §5, §1, §6

CC(C)SCCC#N [B]
Crack-generating time [1]: 175 h
Crack-generating time [2]: 16 h
Crack-generating time [3]: 14 h
Crack-generating time [4]: 11 h
Crack-generating time [5]: 185 h
Crack-generating time [6]: 15 h

CC(C#N)CSCC(C)C#N (stereo not drawn) [C]
Crack-generating time [1]: 190 h
Crack-generating time [2]: 20 h
Crack-generating time [3]: 18 h
Crack-generating time [4]: 13 h
Crack-generating time [5]: 210 h
Crack-generating time [6]: 18 h

N#CCCCSCCCC#N [D]
Crack-generating time [1]: 195 h
Crack-generating time [2]: 22 h
Crack-generating time [3]: 19 h
Crack-generating time [4]: 15 h
Crack-generating time [5]: 215 h
Crack-generating time [6]: 19 h

CCC(CCCC#N)CSCC(CC)CCCC#N (stereo not drawn) [E]
Crack-generating time [1]: 180 h
Crack-generating time [2]: 16 h
Crack-generating time [3]: 15 h
Crack-generating time [4]: 11 h
Crack-generating time [5]: 190 h
Crack-generating time [6]: 16 h

CCCCCCCCCCCCCCCCCCSCCC#N [F]
Crack-generating time [1]: 170 h
Crack-generating time [2]: 15 h
Crack-generating time [3]: 13 h
Crack-generating time [4]: 10 h
Crack-generating time [5]: 180 h
Crack-generating time [6]: 14 h

N#CCCSCCC#N [Sample A]
Crack-generating time [1]: 200 h
Crack-generating time [2]: 24 h
Crack-generating time [3]: 21 h
Crack-generating time [4]: 16 h
Crack-generating time [5]: 220 h
Crack-generating time [6]: 20 h
